Data as given in ChEMBL document CHEMBL1201862, “PubChem BioAssay data set” (2004).
Calls of active or inactive are those of the source.

Columns and labels:
[1] = target: Large T antigen (Simian virus 40, UniProt P03070); type: functional, Betapolyomavirus macacae;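 note: Confirmatory-stage PubChem screen for compounds that inhibit SV40 T antigen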
[2] = target: T1, Intestinal-type alkaline phosphatase (Mus musculus, UniProt P24822); assay: PubChem AID 488874; type: functional
[3] = target: T2, Intestinal-type alkaline phosphatase (Homo sapiens, UniProt P09923); assay: human IAP inhibitors, dose response, biochemical, luminescent, uHTS hits, set 2 (AID 488793); type: functional
T2 sequence (P09923 whole entry): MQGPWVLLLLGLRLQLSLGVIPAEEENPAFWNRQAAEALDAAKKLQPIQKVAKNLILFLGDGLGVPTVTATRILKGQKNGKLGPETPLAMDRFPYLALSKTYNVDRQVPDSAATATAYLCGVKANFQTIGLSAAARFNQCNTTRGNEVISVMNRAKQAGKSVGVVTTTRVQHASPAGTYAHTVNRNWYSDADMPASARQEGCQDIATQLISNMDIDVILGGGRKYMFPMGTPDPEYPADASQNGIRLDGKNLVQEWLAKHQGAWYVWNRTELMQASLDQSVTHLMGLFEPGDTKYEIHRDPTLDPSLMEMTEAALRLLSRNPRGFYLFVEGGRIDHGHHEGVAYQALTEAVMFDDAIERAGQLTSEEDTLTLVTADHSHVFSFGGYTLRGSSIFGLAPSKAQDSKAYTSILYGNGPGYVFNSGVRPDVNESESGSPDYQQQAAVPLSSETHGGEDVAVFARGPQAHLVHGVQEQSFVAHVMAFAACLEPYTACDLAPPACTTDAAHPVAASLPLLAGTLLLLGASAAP

[4] = target: T2, Intestinal-type alkaline phosphatase; assay: Dose Response confirmation of uHTS hits from a small molecule inhibitors of human intestinal alkaline phosphatase via a luminescent assay. [Related pubchem assays (depositor defined):AID2544, AID2574]; type: functional
[5] = target: T2, Intestinal-type alkaline phosphatase; assay: activation of human intestinal alkaline phosphatase – biochemical, dose response (AID 488873); type: functional
[6] = target: T1, Intestinal-type alkaline phosphatase; assay: PubChem AID 488785; type: functional
[7] = target: T3, Alkaline phosphatase, tissue-nonspecific isozyme (Homo sapiens, UniProt P05186); assay: TNAP enzyme inhibition by screening hits, dose response, selectivity assay for mouse IAP inhibitor project, biochemical, human TNAP, uHTS hits (AID 488906); type: functional
T3 sequence (P05186 whole entry): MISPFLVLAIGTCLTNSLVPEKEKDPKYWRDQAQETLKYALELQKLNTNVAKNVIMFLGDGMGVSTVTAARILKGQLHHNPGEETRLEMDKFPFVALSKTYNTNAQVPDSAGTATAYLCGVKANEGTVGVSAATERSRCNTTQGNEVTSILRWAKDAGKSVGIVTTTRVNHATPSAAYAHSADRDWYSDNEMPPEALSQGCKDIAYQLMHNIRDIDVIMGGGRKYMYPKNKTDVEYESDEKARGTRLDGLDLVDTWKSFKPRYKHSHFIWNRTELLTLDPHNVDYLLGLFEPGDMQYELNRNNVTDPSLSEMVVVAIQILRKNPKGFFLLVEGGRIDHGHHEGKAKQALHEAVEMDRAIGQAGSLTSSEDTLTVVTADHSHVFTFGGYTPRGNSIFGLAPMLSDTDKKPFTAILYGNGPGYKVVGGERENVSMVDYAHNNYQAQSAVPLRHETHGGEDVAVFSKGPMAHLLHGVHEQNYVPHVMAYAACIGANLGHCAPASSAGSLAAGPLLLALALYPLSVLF

[8] = target: T3, Alkaline phosphatase, tissue-nonspecific isozyme; assay: inhibition of tissue-nonspecific alkaline phosphatase – biochemical, dose response (AID 488882); type: functional
[9] = target: 1-phosphatidylinositol 4,5-bisphosphate phosphodiesterase gamma-1 (Homo sapiens, UniProt P19174); assay: Counterscreen for inhibitors of phospholipase C isozymes (PLC-B3): Fluorescence-based biochemical high throughput dose response assay to identify inhibitors of phospholipase C isozymes (PLC-gamma1).
[10] = target: 1-phosphatidylinositol 4,5-bisphosphate phosphodiesterase beta-3 (Homo sapiens, UniProt Q01970); assay: Fluorescence-based biochemical high throughput dose response assay to identify inhibitors of phospholipase C isozymes (PLC-B3).
Chain of 1-phosphatidylinositol 4,5-bisphosphate phosphodiesterase beta-3 (Q01970 whole entry): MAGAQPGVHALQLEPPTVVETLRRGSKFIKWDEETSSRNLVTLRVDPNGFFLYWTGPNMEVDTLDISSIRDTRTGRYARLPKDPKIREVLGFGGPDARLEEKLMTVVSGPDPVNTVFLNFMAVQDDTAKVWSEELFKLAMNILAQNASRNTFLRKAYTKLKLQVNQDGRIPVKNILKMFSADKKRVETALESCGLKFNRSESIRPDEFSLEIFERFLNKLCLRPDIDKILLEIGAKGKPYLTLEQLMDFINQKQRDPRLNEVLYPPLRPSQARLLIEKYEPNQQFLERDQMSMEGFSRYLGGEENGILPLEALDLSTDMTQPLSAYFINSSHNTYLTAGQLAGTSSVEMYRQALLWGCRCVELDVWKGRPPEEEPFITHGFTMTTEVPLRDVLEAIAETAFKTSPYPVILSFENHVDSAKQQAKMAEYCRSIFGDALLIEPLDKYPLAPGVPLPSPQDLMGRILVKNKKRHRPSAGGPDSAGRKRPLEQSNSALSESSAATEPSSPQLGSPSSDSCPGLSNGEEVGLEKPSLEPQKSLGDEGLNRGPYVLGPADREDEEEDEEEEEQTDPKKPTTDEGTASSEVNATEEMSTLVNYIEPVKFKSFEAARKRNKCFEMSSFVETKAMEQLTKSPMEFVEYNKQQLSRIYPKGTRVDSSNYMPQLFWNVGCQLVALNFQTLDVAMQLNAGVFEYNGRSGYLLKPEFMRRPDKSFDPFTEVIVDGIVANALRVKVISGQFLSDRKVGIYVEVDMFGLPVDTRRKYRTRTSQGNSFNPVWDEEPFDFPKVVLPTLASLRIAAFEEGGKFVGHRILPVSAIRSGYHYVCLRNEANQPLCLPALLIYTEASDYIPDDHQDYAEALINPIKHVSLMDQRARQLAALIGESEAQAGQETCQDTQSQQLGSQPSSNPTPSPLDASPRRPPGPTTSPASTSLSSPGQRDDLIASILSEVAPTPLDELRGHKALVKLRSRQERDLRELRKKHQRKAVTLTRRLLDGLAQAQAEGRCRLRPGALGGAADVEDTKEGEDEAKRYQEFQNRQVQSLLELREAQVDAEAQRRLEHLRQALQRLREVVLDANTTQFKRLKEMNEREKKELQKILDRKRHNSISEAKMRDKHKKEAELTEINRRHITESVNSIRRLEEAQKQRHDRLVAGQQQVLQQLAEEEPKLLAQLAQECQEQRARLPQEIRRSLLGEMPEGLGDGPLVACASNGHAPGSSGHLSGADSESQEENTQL

[11] = target: Cytochrome P450 3A4 (Homo sapiens, UniProt P08684);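 note: CYP3A4 tested as one member of a cytochrome P450 panel screen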
Chain of Cytochrome P450 3A4 (P08684 whole entry): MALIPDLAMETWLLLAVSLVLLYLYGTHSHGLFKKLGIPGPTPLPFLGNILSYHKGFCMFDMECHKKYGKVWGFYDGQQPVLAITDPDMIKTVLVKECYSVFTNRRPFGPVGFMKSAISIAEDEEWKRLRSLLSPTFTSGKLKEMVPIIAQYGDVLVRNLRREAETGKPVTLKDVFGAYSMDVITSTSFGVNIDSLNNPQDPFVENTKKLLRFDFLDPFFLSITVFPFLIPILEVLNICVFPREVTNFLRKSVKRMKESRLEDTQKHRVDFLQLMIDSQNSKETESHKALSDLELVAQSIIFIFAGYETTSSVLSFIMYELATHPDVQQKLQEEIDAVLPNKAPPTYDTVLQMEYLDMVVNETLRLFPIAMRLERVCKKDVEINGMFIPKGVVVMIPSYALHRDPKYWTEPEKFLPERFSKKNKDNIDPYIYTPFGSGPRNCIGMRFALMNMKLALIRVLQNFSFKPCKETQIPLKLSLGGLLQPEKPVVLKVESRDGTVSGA

[12] = target: Sphingosine 1-phosphate receptor 1 (Homo sapiens, UniProt P21453); assay: Fluorescence-based counterscreen assay for S1P4 agonists: Cell-based dose response high throughput screening assay to identify agonists of the Sphingosine 1-Phosphate Receptor 1 (S1P1). [Related pubchem assays (depositor defined):AID1509, AID1523, AID1801, AID463107, AID463118, AID463119, AID463122, AID463123, AID463129, AID463225, AID504400, AID504460]; type: functional
Chain of Sphingosine 1-phosphate receptor 1 (P21453 whole entry): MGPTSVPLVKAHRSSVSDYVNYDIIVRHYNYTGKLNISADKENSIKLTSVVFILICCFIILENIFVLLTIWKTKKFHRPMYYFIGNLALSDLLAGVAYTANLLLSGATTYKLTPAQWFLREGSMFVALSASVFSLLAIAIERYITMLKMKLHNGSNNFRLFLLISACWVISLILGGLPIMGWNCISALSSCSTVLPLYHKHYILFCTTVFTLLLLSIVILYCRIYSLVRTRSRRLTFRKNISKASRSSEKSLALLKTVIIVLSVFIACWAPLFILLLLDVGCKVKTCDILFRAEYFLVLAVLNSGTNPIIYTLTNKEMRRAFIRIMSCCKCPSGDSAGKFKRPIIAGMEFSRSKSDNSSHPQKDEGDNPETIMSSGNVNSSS

[13] = target: T4, Aminopeptidase N (Plasmodium falciparum FcB1/Columbia, UniProt O96935); assay: P. falciparum M1AAP inhibitors, biochemical, fluorogenic H-Leu-NHMec substrate, 1536-well (AID 1445); set-up: species or system Plasmodium falciparum 3D7, 3D7
T4 sequence (O96935 whole entry): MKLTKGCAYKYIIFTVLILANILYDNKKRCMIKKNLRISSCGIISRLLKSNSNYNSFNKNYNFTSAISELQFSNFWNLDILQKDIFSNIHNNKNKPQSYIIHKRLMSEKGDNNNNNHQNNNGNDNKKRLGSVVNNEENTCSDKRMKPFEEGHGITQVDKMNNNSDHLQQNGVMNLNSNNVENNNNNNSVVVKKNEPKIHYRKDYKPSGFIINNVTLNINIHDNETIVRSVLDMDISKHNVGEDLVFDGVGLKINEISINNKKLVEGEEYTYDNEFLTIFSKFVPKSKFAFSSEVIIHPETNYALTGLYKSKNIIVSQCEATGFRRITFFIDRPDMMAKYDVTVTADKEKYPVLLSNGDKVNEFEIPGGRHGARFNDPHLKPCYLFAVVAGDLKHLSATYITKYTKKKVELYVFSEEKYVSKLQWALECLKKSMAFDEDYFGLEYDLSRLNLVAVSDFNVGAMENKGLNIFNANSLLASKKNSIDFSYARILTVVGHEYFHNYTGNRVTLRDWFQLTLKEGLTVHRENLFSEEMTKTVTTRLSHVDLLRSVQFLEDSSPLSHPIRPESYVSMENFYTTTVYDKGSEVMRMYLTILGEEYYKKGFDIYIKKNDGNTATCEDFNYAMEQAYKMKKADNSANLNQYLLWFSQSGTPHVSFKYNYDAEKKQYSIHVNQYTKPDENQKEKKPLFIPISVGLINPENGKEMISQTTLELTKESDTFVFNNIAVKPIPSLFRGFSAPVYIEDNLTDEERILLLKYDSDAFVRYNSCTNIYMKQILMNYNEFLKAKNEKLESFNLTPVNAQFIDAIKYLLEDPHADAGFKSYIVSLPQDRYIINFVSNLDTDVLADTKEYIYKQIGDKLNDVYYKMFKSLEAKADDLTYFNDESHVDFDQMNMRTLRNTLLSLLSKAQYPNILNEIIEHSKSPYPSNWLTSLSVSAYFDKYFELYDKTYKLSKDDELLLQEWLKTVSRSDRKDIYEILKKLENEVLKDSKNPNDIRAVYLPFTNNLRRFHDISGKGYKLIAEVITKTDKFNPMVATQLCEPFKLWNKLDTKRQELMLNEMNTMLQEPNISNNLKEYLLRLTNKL

[14] = target: Sphingosine 1-phosphate receptor 4 (Homo sapiens, UniProt O95977); assay: Fluorescence dose response cell-based high throughput screening assay for agonists of the Sphingosine 1-Phosphate Receptor 4 (S1P4). [Related pubchem assays: 1509 (Primary screen.), 1523 (Confirmation screen in triplicates.)]; type: functional
Chain of Sphingosine 1-phosphate receptor 4 (O95977 whole entry): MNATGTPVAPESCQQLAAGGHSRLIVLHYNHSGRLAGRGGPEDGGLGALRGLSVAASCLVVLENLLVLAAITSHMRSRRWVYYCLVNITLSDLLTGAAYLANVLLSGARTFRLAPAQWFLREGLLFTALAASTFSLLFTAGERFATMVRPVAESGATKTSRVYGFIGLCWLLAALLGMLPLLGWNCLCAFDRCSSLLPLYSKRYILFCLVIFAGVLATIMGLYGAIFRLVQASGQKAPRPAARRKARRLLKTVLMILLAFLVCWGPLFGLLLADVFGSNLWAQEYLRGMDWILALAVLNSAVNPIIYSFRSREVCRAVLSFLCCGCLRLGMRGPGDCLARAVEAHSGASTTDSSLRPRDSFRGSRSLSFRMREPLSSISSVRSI

[15] = target: Sphingosine 1-phosphate receptor 2 (Homo sapiens, UniProt O95136); assay: Dose Response Cell Based Assay for Agonists of the S1P2 Receptor. [Related pubchem assays: 729, 736, 843 ]; type: functional
Chain of Sphingosine 1-phosphate receptor 2 (O95136 whole entry): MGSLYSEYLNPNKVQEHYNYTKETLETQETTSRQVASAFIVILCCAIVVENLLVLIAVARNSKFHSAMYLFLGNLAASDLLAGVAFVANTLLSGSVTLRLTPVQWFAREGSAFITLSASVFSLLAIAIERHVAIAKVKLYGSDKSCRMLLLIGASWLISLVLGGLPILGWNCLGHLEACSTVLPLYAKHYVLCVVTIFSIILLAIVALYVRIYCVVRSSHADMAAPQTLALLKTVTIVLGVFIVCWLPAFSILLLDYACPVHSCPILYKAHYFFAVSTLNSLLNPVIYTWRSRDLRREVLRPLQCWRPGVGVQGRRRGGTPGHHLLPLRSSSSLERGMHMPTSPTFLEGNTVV

[16] = target: Exodeoxyribonuclease V (Escherichia coli (strain K12), UniProt P04993+P07648+P08394); assay: E. coli RecBCD inhibitors, dose response, counter-screen for AddAB inhibitor project, absorbance, V66 E. coli, mutant T4 phage (AID 492957); type: functional, cell-based, Escherichia coli str. K-12 substr. MG1655
[17] = Counterscreen for AddAB inhibitors: absorbance-based bacterial cell-based high throughput dose response assay for inhibitors of bacterial viability. [Related pubchem assays (depositor defined):AID435030, AID449728, AID449731, AID488942, AID488955, AID488956]; type: functional
[18] = target: Voltage-dependent T-type calcium channel subunit alpha-1H (Homo sapiens, UniProt O95180); assay: Cav3.2 T-type channel blockers, cell-based, SynthLib3 library, HEK293 Cav3.2, fluorescence (AID 493041); type: functional
[19] = insulin promoter down-regulators in MIN6 cells, imaging, high-content screening, mouse beta cells (AID 1628); type: functional
[20] = cytotoxicity in MIN6 insulinoma cells, dose response, cytotoxicity control, cell-based, mouse insulinoma (AID 2122); type: functional;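 note: confirmatory high-throughput counterscreen run to flag cytotoxic compounds; mouse MIN-6 beta cells carrying an insulin promoter eGFP reporter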
[21] = target: T5, Ubiquitin-conjugating enzyme E2 N (Homo sapiens, UniProt P61088); type: functional;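 note: Dose-response confirmation in a TR-FRET assay detecting UBC13-driven polyubiquitin chain formation, inhibition measured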
T5 sequence (P61088 whole entry): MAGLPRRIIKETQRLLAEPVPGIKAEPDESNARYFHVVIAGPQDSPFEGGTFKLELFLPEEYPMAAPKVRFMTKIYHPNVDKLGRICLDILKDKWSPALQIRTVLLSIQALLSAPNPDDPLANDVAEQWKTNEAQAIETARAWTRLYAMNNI

[22] = target: T6, Replicative DNA helicase DnaB (Mycobacterium tuberculosis, UniProt P9WMR3); assay: DnaB intein splicing inhibitors, dose response, biochemical, cell-free fluorescence (AID 449749); type: functional
T6 sequence (P9WMR3 whole entry): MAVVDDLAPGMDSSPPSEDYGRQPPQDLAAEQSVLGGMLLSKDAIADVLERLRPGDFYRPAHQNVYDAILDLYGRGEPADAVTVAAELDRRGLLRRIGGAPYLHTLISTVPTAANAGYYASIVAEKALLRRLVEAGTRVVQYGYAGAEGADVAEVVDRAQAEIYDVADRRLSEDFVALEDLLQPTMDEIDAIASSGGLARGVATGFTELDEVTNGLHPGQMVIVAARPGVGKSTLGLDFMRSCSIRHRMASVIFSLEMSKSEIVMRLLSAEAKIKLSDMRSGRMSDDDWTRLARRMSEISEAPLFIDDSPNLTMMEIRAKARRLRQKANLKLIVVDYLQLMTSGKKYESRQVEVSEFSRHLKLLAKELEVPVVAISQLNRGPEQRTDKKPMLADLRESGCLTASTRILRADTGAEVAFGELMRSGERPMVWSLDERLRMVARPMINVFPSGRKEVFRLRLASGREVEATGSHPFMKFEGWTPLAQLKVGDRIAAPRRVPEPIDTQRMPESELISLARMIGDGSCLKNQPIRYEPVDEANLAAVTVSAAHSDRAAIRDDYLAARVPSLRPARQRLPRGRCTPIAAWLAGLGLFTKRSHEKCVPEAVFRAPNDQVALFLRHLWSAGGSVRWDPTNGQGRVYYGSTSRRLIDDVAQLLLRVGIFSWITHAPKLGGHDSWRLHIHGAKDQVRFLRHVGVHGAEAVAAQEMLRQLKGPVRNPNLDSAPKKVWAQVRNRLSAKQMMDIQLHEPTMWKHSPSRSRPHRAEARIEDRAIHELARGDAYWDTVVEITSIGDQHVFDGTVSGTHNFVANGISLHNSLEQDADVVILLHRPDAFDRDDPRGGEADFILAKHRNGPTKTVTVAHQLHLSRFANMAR

[23] = target: T7, Protein RecA (Mycobacterium tuberculosis, UniProt P9WHJ3); assay: Fluorescence Cell-Free Homogeneous Dose Retest to Identify Inhibitors of RecA-Intein Splicing Activity. [Related pubchem assays (depositor defined):AID2097, AID2223, AID489010, AID492950]; type: functional
T7 sequence (P9WHJ3 whole entry): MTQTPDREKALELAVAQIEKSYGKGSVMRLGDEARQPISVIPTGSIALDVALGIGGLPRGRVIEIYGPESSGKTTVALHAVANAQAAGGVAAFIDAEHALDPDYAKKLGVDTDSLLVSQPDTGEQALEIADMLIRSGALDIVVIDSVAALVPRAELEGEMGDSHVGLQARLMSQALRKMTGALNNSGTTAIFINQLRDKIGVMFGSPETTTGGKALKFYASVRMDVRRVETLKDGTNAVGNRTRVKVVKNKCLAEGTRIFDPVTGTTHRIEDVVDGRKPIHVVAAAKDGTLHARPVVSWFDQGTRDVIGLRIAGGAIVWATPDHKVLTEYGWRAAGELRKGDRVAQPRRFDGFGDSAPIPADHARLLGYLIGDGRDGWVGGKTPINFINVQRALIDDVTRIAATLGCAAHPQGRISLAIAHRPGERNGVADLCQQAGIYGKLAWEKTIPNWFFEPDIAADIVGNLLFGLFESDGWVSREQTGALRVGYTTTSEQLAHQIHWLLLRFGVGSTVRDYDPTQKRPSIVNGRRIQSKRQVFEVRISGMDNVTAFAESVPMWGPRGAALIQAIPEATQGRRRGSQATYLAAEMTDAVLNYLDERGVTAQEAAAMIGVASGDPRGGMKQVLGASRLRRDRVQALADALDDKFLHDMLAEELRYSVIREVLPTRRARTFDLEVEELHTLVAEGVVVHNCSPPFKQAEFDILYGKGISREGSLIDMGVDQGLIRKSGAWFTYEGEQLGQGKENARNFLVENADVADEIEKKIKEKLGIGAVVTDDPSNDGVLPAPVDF

T1 sequence (P24822 whole entry): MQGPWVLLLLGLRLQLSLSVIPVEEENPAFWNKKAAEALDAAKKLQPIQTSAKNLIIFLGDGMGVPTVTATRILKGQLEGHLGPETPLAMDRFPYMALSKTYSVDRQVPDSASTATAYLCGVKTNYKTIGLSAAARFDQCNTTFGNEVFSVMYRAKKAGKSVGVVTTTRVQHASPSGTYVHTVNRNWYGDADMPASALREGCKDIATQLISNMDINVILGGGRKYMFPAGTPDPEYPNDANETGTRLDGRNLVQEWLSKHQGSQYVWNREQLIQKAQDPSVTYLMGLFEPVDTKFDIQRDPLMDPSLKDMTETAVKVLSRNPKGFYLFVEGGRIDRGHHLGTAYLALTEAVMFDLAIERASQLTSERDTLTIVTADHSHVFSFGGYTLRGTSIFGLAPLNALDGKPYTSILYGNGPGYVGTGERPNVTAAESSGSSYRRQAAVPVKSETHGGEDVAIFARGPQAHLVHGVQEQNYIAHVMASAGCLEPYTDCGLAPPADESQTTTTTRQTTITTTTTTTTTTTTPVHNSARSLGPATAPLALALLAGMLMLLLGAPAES
Chain of Large T antigen (P03070 whole entry): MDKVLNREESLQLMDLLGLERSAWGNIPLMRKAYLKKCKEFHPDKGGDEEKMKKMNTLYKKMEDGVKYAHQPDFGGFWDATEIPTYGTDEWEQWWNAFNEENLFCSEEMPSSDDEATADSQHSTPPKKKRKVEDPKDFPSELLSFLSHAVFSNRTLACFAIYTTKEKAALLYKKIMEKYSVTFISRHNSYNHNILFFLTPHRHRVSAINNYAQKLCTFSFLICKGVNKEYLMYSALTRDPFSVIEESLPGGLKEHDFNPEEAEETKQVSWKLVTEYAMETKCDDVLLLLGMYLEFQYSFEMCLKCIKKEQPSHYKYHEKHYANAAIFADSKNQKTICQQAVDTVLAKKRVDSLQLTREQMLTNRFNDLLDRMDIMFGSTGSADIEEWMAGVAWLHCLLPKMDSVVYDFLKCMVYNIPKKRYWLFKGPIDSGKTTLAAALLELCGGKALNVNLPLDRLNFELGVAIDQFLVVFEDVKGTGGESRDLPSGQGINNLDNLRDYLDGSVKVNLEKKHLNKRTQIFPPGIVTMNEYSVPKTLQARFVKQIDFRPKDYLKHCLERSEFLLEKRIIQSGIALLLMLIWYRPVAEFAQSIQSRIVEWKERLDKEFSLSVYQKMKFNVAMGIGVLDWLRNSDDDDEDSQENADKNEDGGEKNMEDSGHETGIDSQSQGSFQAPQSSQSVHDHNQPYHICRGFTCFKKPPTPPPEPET

COc1cc(/C=C(\C#N)C(=O)c2ccc(O)c(O)c2)cc(I)c1O
IC50 [1]: 7.17 µM (active) | IC50 [2]: < 0.195 µM (active) | IC50 [3]: 4.56 µM (active) | IC50 [4]: 7.31 µM (active) | EC50 [5]: > 100 µM (inactive) | IC50 [6]: 5.7 µM (active) | IC50 [7]: > 100 µM (inactive) | IC50 [8]: 5.88 µM (active) | IC50 [9]: > 122 µM (inactive) | IC50 [10]: > 122 µM (inactive) | AC50 [11]: 12.6 µM (inconclusive)

CC(C)n1c(=N)c(C(=O)NCCc2ccccc2)cc2c(=O)n3ccccc3nc21
EC50 [12]: 15.9 µM (inactive) | IC50 [13]: 58.6 µM (active) | EC50 [14]: 5.78 µM (active) | EC50 [15]: 4.8 µM (active)

CCOc1ccc2oc(C(=O)NNC(=O)c3ccccc3O)c(C)c2c1
IC50 [16]: > 119 µM (inactive) | IC50 [17]: > 119 µM (inactive)

CCC(CC)CN1C[C@@H]2C(CNC(=O)c3cc(Cl)cc(Cl)c3)[C@@H]2C1 (stereo partly drawn)
EC50 [18]: 1.2 µM (active)

Fc1ccc(Nc2nc(NCc3ccco3)c3ccccc3n2)cc1
IC50 [19]: 1.7 µM (active) | IC50 [20]: 1.93 µM (active) | IC50 [21]: > 20 µM (inactive) | AC50 [22]: 1.93 µM (active) | EC50 [23]: 8.32 µM (active)
